Results as given in the NIST ThermoML archive (doi:10.1016/j.jct.2016.04.003).

Assay: xn = mol fraction of the nth substance listed
Settings: for surface tension liquid-gas: Drop volume; for viscosity / speed of sound / mass density: 99 kPa, Liquid; for viscosity: Capillary tube (Ostwald / Ubbelohde) method; for speed of sound: Frequency=3 MHz, Sing-around technique in a fixed-path interferometer; for mass density: Vibrating tube method

CCC[n+]1ccccc1.F[B-](F)(F)F [1-propylpyridinium tetrafluoroborate] + O
Settings | mass density [kg/m3] | speed of sound [m/s] | surface tension liquid-gas [mN/m] | viscosity [mPa·s]
293.15 K, x1 = 0.0185 | 1034.4 | 1537.2 | – | –
293.15 K, x1 = 0.028 | – | – | 58.5 | –
293.15 K, x1 = 0.0287 | 1050.5 | 1551 | – | –
293.15 K, x1 = 0.0466 | 1074 | 1568.7 | – | –
293.15 K, x1 = 0.0492 | – | – | – | 1.359
293.15 K, x1 = 0.0551 | – | – | 56.1 | –
293.15 K, x1 = 0.0766 | 1103.9 | 1590.8 | – | –
293.15 K, x1 = 0.0952 | – | – | – | 1.827
293.15 K, x1 = 0.0964 | 1119 | 1602.6 | – | –
293.15 K, x1 = 0.1008 | – | – | 54 | –
293.15 K, x1 = 0.1522 | – | – | 52.7 | –
293.15 K, x1 = 0.1948 | – | – | – | 2.933
293.15 K, x1 = 0.1965 | – | – | 52 | –
293.15 K, x1 = 0.2011 | 1169.1 | 1640.9 | – | –
293.15 K, x1 = 0.2588 | – | – | – | 4.438
293.15 K, x1 = 0.2858 | 1191.6 | 1651.5 | – | –
293.15 K, x1 = 0.2947 | – | – | 51.5 | –
293.15 K, x1 = 0.3451 | – | – | 51.4 | –
293.15 K, x1 = 0.3891 | – | – | – | 8.303
293.15 K, x1 = 0.3968 | – | – | 51.2 | –
293.15 K, x1 = 0.3993 | 1211.3 | 1654.2 | – | –
293.15 K, x1 = 0.4779 | – | – | 51.1 | –
293.15 K, x1 = 0.4894 | – | – | – | 13.36
293.15 K, x1 = 0.4979 | 1223.2 | 1651.5 | – | –
293.15 K, x1 = 0.5772 | 1230.6 | 1648.1 | – | –
293.15 K, x1 = 0.5827 | – | – | 51.1 | –
293.15 K, x1 = 0.5942 | – | – | – | 19.97
293.15 K, x1 = 0.6015 | 1232.5 | 1647.3 | – | –
293.15 K, x1 = 0.6695 | 1237.6 | 1645.8 | – | –
293.15 K, x1 = 0.6846 | – | – | 51 | –
293.15 K, x1 = 0.6952 | – | – | – | 33.13
293.15 K, x1 = 0.7309 | 1241.4 | 1645.4 | – | –
293.15 K, x1 = 0.7771 | 1244.2 | 1645.6 | – | –
293.15 K, x1 = 0.7861 | – | – | 51 | –
293.15 K, x1 = 0.7903 | – | – | – | 53.92
293.15 K, x1 = 0.8395 | 1247.6 | 1647.1 | – | –
293.15 K, x1 = 0.8862 | – | – | 51.1 | –
293.15 K, x1 = 0.8982 | – | – | – | 97.09
293.15 K, x1 = 0.9054 | 1251.2 | 1649.5 | – | –
293.15 K, x1 = 0.9425 | – | – | 51.2 | –
293.15 K, x1 = 0.943 | – | – | – | 124.2
293.15 K, x1 = 0.9633 | 1254.5 | 1652.1 | – | –
293.15 K, x1 = 1 | 1256.7 | 1653.9 | 51.3 | 160
303.15 K, x1 = 0.0185 | 1030.5 | 1550.2 | – | –
303.15 K, x1 = 0.028 | – | – | 57.2 | –
303.15 K, x1 = 0.0287 | 1046.1 | 1564 | – | –
303.15 K, x1 = 0.0466 | 1068.7 | 1581.1 | – | –
303.15 K, x1 = 0.0492 | – | – | – | 1.092
303.15 K, x1 = 0.0551 | – | – | 54.8 | –
303.15 K, x1 = 0.0766 | 1097.8 | 1599.5 | – | –
303.15 K, x1 = 0.0952 | – | – | – | 1.278
303.15 K, x1 = 0.0964 | 1112.5 | 1607.8 | – | –
303.15 K, x1 = 0.1008 | – | – | 52.8 | –
303.15 K, x1 = 0.1522 | – | – | 51.6 | –
303.15 K, x1 = 0.1948 | – | – | – | 2.334
303.15 K, x1 = 0.1965 | – | – | 50.9 | –
303.15 K, x1 = 0.2011 | 1161.7 | 1627.8 | – | –
303.15 K, x1 = 0.2588 | – | – | – | 3.141
303.15 K, x1 = 0.2858 | 1184.2 | 1630.3 | – | –
303.15 K, x1 = 0.2947 | – | – | 50.6 | –
303.15 K, x1 = 0.3451 | – | – | 50.5 | –
303.15 K, x1 = 0.3891 | – | – | – | 6.162
303.15 K, x1 = 0.3968 | – | – | 50.3 | –
303.15 K, x1 = 0.3993 | 1203.8 | 1629.5 | – | –
303.15 K, x1 = 0.4779 | – | – | 50.2 | –
303.15 K, x1 = 0.4894 | – | – | – | 9.757
303.15 K, x1 = 0.4979 | 1215.7 | 1627.3 | – | –
303.15 K, x1 = 0.5772 | 1223.1 | 1625.1 | – | –
303.15 K, x1 = 0.5827 | – | – | 50.3 | –
303.15 K, x1 = 0.5942 | – | – | – | 14.93
303.15 K, x1 = 0.6015 | 1225 | 1624.6 | – | –
303.15 K, x1 = 0.6695 | 1230 | 1623.3 | – | –
303.15 K, x1 = 0.6846 | – | – | 50.3 | –
303.15 K, x1 = 0.6952 | – | – | – | 22.56
303.15 K, x1 = 0.7309 | 1233.9 | 1622.6 | – | –
303.15 K, x1 = 0.7771 | 1236.7 | 1622.4 | – | –
303.15 K, x1 = 0.7861 | – | – | 50.3 | –
303.15 K, x1 = 0.7903 | – | – | – | 34.94
303.15 K, x1 = 0.8395 | 1240.2 | 1623 | – | –
303.15 K, x1 = 0.8862 | – | – | 50.3 | –
303.15 K, x1 = 0.8982 | – | – | – | 58.66
303.15 K, x1 = 0.9054 | 1243.9 | 1624.6 | – | –
303.15 K, x1 = 0.9425 | – | – | 50.4 | –
303.15 K, x1 = 0.943 | – | – | – | 70.68
303.15 K, x1 = 0.9633 | 1247.3 | 1627.3 | – | –
303.15 K, x1 = 1 | 1249.5 | 1629.8 | 50.5 | 90.75
